Data taken from PubChem BioAssay (NCI).
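48-hour exposure; five concentrations; linearly interpolated endpoints. TGI: concentration producing complete growth inhibition.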

How the values were obtained:
Assay in all cases: NCI-60 cell line screen, 48 h
DLD-1 colon = test system: DLD-1 colon
DMS 114 small cell lung = test system: DMS 114 small cell lung
DMS 273 small cell lung = test system: DMS 273 small cell lung
HOP-18 NSCLC = test system: HOP-18 NSCLC
KM20L2 colon = test system: KM20L2 colon
LXFL 529 NSCLC = test system: LXFL 529 NSCLC
M19-MEL melanoma = test system: M19-MEL melanoma
SNB-78 CNS = test system: SNB-78 CNS
BT-549 breast = test system: BT-549 breast
HS 578T breast = test system: HS 578T breast
XF 498 CNS = test system: XF 498 CNS

For O=S(Cc1cc2c(cc1Br)OCO2)c1ccccc1 (stereo not given), the TGI (DLD-1 colon) was 49.5 µM, the TGI (DMS 114 small cell lung) was 61.8 µM and the TGI (DMS 273 small cell lung) was greater than 100 µM. For the same compound, the TGI (HOP-18 NSCLC) was greater than 100 µM, the TGI (KM20L2 colon) was greater than 100 µM and the TGI (LXFL 529 NSCLC) was greater than 100 µM. It also gave a TGI (M19-MEL melanoma) greater than 100 µM and a TGI (SNB-78 CNS) greater than 100 µM.
NC(N)=NS(=O)(=O)c1ccc(NNc2c3ccccc3nc3c(C(=O)Nc4ccc(S(N)(=O)=O)cc4)cccc23)cc1 was tested, and the TGI (BT-549 breast) was 70.2 µM and the TGI (HS 578T breast) was 88 µM.
Compound COc1ccc(Nc2nc3ccccc3nc2C(=O)O)cc1 has a TGI (BT-549 breast) greater than 100 µM and a TGI (HS 578T breast) of 85.9 µM.
COc1ccc2c(c1)c1c3c(ccc4ncn2c43)N(CCN(C)C)CCN=1 was tested, and the TGI (HS 578T breast) was 3.16 µM.
For CC(C)(C)c1cc(C(C)(C)C)c2sc(=S)oc2c1O, the TGI (BT-549 breast) was 23.6 µM and the TGI (HS 578T breast) was 20.4 µM.
For O=C(N/C(=C/c1ccc(Cl)cc1)c1nc2ccccc2c(=O)n1Nc1ccc([N+](=O)[O-])cc1[N+](=O)[O-])c1ccccc1, the TGI (BT-549 breast) was greater than 100 µM and the TGI (HS 578T breast) was greater than 100 µM.
COc1cccc(/C=C2\C(=O)N(C(=O)Cc3ccccc3)N=C2C)c1 showed a TGI (DLD-1 colon) greater than 100 µM, a TGI (DMS 114 small cell lung) greater than 100 µM and a TGI (DMS 273 small cell lung) greater than 100 µM. The TGI (HOP-18 NSCLC) was greater than 100 µM, the TGI (M19-MEL melanoma) was greater than 100 µM and the TGI (SNB-78 CNS) was greater than 100 µM. It also gave a TGI (XF 498 CNS) greater than 100 µM.
With CC1CC(NN(C)C)C2(C(N)=O)C(N)=NC(=O)C12C#N (stereo not given) the TGI (HS 578T breast) was greater than 100 µM.
Work on COC(=O)CCc1ccc2c(c1)CC1(C2)Cc2ccc3c(c2C1)CCC3 (stereo not given) yielded a TGI (HS 578T breast) greater than 100 µM.
Compound COc1ccc2[nH]c3c(C)c4cnccc4c(C)c3c2c1 has a TGI (BT-549 breast) greater than 10 µM and a TGI (HS 578T breast) greater than 10 µM.
COc1ccc(C2C(Cl)C(=O)N2NC(=O)c2ccc(N)cc2)cc1OC (stereo not given) showed a TGI (BT-549 breast) of 18.3 µM, a TGI (DLD-1 colon) of 15.4 µM and a TGI (DMS 273 small cell lung) of 11.8 µM. It also gave a TGI (KM20L2 colon) of 27.8 µM, a TGI (LXFL 529 NSCLC) of 3.78 µM and a TGI (M19-MEL melanoma) of 16.1 µM. It also gave a TGI (SNB-78 CNS) greater than 100 µM and a TGI (XF 498 CNS) of 2.3 µM.
Compound CC1=NN(c2ccccc2)C(=O)C1=C1SCCCS1 has a TGI (DLD-1 colon) of 45.9 µM, a TGI (DMS 114 small cell lung) of 45.2 µM and a TGI (DMS 273 small cell lung) greater than 100 µM. The TGI (HOP-18 NSCLC) was greater than 100 µM, the TGI (KM20L2 colon) was greater than 100 µM and the TGI (LXFL 529 NSCLC) was greater than 100 µM. For the same compound, the TGI (M19-MEL melanoma) was greater than 100 µM, the TGI (SNB-78 CNS) was greater than 100 µM and the TGI (XF 498 CNS) was 58.6 µM.
For O=C1C=C(Nc2ccccc2C(=O)CC(=O)C(=O)Nc2ccc(Cl)c(Cl)c2)c2ccccc2C1=O, the TGI (DLD-1 colon) was greater than 100 µM, the TGI (DMS 114 small cell lung) was 66.7 µM and the TGI (M19-MEL melanoma) was 8.96 µM. The TGI (SNB-78 CNS) was greater than 100 µM.
Work on O=C(CCO)OCCCCCC/C=C\CCCCCC/C=C\CCCCCCCCOC(=O)CCO yielded a TGI (BT-549 breast) of 33.1 µM.
In the case of Cc1ccccc1NC(=O)C(=O)Cc1cnc2ccccc2n1, the TGI (BT-549 breast) is reported as greater than 100 µM and the TGI (HS 578T breast) is reported as greater than 100 µM.
Cc1cc(C)c(NS(=O)c2cccc([N+](=O)[O-])c2)c(C)c1 (stereo not given) was tested, and the TGI (BT-549 breast) was greater than 100 µM.
Cc1cc(C)c2c(c1)C(=O)C1(C2)Cc2c(ccc(C)c2C)C1=O (stereo not given) showed a TGI (BT-549 breast) greater than 100 µM and a TGI (HS 578T breast) greater than 100 µM.
In the case of C1=c2ccccc2=C2C(=C(c3ccccc3)C(c3ccccc3)=NN2c2ccccc2)S1, the TGI (DLD-1 colon) is reported as greater than 100 µM, the TGI (DMS 114 small cell lung) is reported as greater than 100 µM and the TGI (DMS 273 small cell lung) is reported as greater than 100 µM. For the same compound, the TGI (HOP-18 NSCLC) was greater than 100 µM, the TGI (KM20L2 colon) was greater than 100 µM and the TGI (LXFL 529 NSCLC) was greater than 100 µM. It also gave a TGI (M19-MEL melanoma) greater than 100 µM and a TGI (SNB-78 CNS) greater than 100 µM.
Compound O=C1CSC(/C=C/c2ccccc2)N1c1ccc(-n2c(-c3ccccc3)nc3ccccc3c2=O)cc1 (stereo not given) has a TGI (BT-549 breast) greater than 100 µM and a TGI (HS 578T breast) greater than 100 µM.
